Experimental data published in patent US20200247897A1, “THERAPEUTIC ANTIBODIES BASED ON MUTATED IGG HEXAMERS” (GENMAB B.V., priority 2017, published 2020).

Legend:
[1] = test system: BxPC-3 pancreatic cancer cells; assay: 3-days CellTiter-Glo viability assay, BxPC-3; conditions: Z-VAD-FMK 5 μM
[2] = test system: colon, pancreatic, gastric, lung and skin cancer cell lines; assay: 3-days CellTiter-Glo viability assay, panel of different human cancer cell lines; type: cell-based; conditions: 133 nM; 11 cell lines (Example 41)
[3] = test system: BxPC-3 pancreatic cancer cells; assay: Caspase-Glo 3/7 assay, BxPC-3; type: cell-based, human; conditions: 26.6 nM; 1, 2, 4 to 6 hours

TRAIL: natural DR5 ligand, recombinant human TRAIL/APO-2L
viability of BxPC-3 cells in presence of pan-caspase inhibitor Z-VAD-FMK [1]: inhibited in the presence of pan-caspase inhibitor Z-VAD-FMK
killing of human cancer cell lines [2]: show killing of human cancer target cell lines originating from different indications
caspase-3/7 activation [3]: more rapid and more potent caspase-3/7 activation
